From US20090082443A1, “Use of fatty acid esters of glycerol combined with polylysine against gram-negative bacteria” (PURAC BIOCHEM B.V., priority 2007, published 2009)

Legend:
[1] = test system: Salmonella typhimurium (ATCC 13311); experiment: Bioscreen growth rate in brain heart infusion broth (synergy study); assay type: cell-based
Description: (§1) The following cultures were used in a study: Escherichia coli (ATCC 8739), Escherichia coli serotype O157:H7 (ATCC 700728), Salmonella typhimurium (ATCC 13311) and Salmonella entiritidis (ATCC 13076). All cultures were transferred daily in screw-capped tubes containing 10 ml brain heart infusion broth. Cultures were incubated at 30° C. without agitation. Brain heart infusion broth was prepared with increasing amounts of the mono/di glyceride and polylysine. The concentration range for the caprylic (C8) mono/di glyceride was as from 0 to 0.18% in 10 0.02% steps, for the capric (C10) mono/di glyceride was as from 0 to 0.09% in 10 0.01% steps, for the lauric (C12)mono/di glyceride was as from 0 to 0.009% in 10 0.001% steps. Mono/di glycerides were combined with polylysine. The concentration range for the polylysine was as from 0 to 0.0675% in 10 0.0075% steps, resulting in 100 different media. The pH of the media was adjusted to 6.1-6.2 with 1 N HCl or 1 N NaOH. Media were prepared in 10 ml quantities and sterilized by filtration. 300 μl of each medium was transferred to a panel of a sterile Bioscreen® honeycomb 100 well plate. Well plates were inoculated with 5 μl of a culture that was grown overnight in brain heart infusion broth using a sterile 5 μl repeating dispenser. Growth rates were determined with a Bioscreen® that kinetically measures the development of turbidity by vertical photometry. The plates were incubated for 16-24 hours at 37° C., the optical density of the cultures was measured every 30 minutes at 420-580 nm using a wide band filter. The Bioscreen® measures at set time intervals the optical density of the cultures. […] The purpose of further data processing is to ascertain whether two […] act independently of each other or whether they stimulate each other in their inhibitory action (synergy) or cancel out each other inhibitory effect (antagonism). […] This implies that only the maximum specific growth rate (μmax) value and not the affinity (Ks) is affected. Therefore the specific growth rate in the presence of inhibitor can be written as: μ=μi.s/(Ks+s), where μi is the maximal specific growth rate in the presence of a inhibitor P. The relationship between μi and μmax and the concentration of the inhibitor P was describes using the Logistic Dose Response equation, which reads: μi/μmax=1/(1+(p/P0.5)^b) (Jungbauer, A. (2001). The logistic dose response function: a robust fitting function for transition phenomena in life sciences. J. Clinical Ligand Assay 24: 270-274). In this equation p represents the concentration of inhibitor P and p0.5 the concentration of P where p=0.5 μmax; μmax is the maximum specific growth rate that is the specific growth rate in the absence of inhibitor P, b is a dimensionless quantity, which determines the relationship between μi and p. Combining the Monod and Logistic Dose Response equation it can be written as: μ=μmax (s/Ks+s)/(1+(p/p0.5)^b). In batch culture where s is usually many times higher than Ks this equation reduces to μ=μmax/(1+(p/p0.5)^b). When comparing different organisms grown under the same conditions, or the same organism grown under different conditions, it is more meaningful to use relative growth rate, rather than absolute growth rates as standards of comparison. Relative growth rate (O) is the ratio of growth rate (μ) to maximum growth rate (μmax) i.e. O=μ/μmax. It can be seen that while μ and μmax have the dimensions of (time)^−1, their ratio O is dimensionless, i.e. a pure number. Similarly we can define the relative inhibitor concentration ε as p/p0.5. The reduced Monod and Logistic Dose Response equation can now be written as: O=1/(1+ε^b).

[2] = test system: Escherichia coli serotype O157:H7 (ATCC 700728); experiment: as above; assay type: cell-based
Description: as §1

[3] = test system: Salmonella entiritidis (ATCC 13076); experiment: as above; assay type: cell-based
Description: as §1

[4] = test system: Escherichia coli (ATCC 8739); experiment: as above; assay type: cell-based
Description: as §1

[5] = test system: Salmonella Typhimurium ATCC 13311; experiment: Decontamination of inoculated chicken filets, surviving counts; assay type: cell-based
Description: Salmonella Typhimurium ATCC 13311 and Escherichia coli O157:H7 ATCC 700728 were grown in sterile screw capped tubes containing Brain heart infusion broth for 18-24 hours at 30° C.
Chicken filets (150-200 g) were trimmed, vacuum packaged and stored at 4-7° C. Filets were subsequently sterilized by gamma-irradiation (average radiation dose: 12 kiloGray).
1 ml of an overnight culture of Salmonella Typhimurium in brain heart infusion both was diluted 1000 times with sterile 0.8% (w/v) NaCl and 0.1% (w/v) peptone. 0.5 ml of this diluted culture was transferred to one side of the filet. The inoculum was distributed by gently rubbing the entire surface of the filet. This was repeated for the other side of the filet. Inoculation was carried out at 6° C. Inoculated filets were rested for 60-120 min at 6° C. to allow attachment of the cells.
Chicken filets were briefly dipped and completely submersed in 1 l of a solution containing the appropriate formulation and then transferred to 400 ml Bagfilter® lateral filter bags (Interscience, St Nom, France) containing 5 ml of the appropriate formulation. Bags were vacuum-sealed and incubated at 12° C. for up to 7 days until further analysis. Time zero samples were plated within 30 min after dipping.
Surviving Salmonella Typhimurium on chicken filets were counted as follows: a sealed bag was opened and to this was added 2 times the net weight sterile dilution fluid ([…] NaCl and 0.1% (w/v) bacteriological peptone). Duplicate filets were homogenized for 1 min. in a Bagmixer® 400 paddle labblender (Interscience, St Nom, France). 50 μl of the homogenates or dilutions thereof were plated on duplicate Salmonella chromogenic agar plates (CM1007) with cefsulodin, novobiocin supplement (SR0194) (Oxoid, Basingstoke, United Kingdom) using an Eddyjet type 1.23 spiral plater (IUL Instruments, Barcelona, Spain). Plates were incubated for 24-48 hours at 30° C. and then counted. Salmonella numbers were expressed as log10 colony forming units per ml homogenate.
The compositions of the formulations that were studied are shown in Table 2. ε-Polylysine and mono/di glycerides were dissolved in demineralised water and sterilized for 20 min at 120° C.

[6] = test system: gram-positive and -negative bacteria; details: Shima et al. (November 1984); cited from earlier work
[7] = 0.120% (w/w) C8-glycerol ester alone
[8] = 0.0225% (w/w) polylysine alone, C8 part of Table 1
[9] = 0.0225% (w/w) polylysine alone, C10 part of Table 1
[10] = 0.090% (w/w) C10-glycerol ester alone

Substance: glyceryl mono/di octanoate [C8-glycerol ester]
- Observed Relative Growth Rate [1, 7]: 0.4035
- Observed Relative Growth Rate [2, 7]: 0.9410
- Observed Relative Growth Rate [3, 7]: 0.5220
- Observed Relative Growth Rate ([4]; 0.120% (w/w) C8-glycerol ester alone, broth pH 6.1-6.2, 37° C.): 1.0845
- Salmonella Typhimurium on chicken filets ([5]; 0.2% (w/v) alone, 12° C., 0 days): 3.82 log10 colony forming units (CFU)/ml
- Salmonella Typhimurium on chicken filets ([5]; 0.2% (w/v) alone, 12° C., 1 day): 3.81 log10 colony forming units (CFU)/ml
- Salmonella Typhimurium on chicken filets ([5]; 0.2% (w/v) alone, 12° C., 2 days): 4.03 log10 colony forming units (CFU)/ml
- Salmonella Typhimurium on chicken filets ([5]; 0.2% (w/v) alone, 12° C., 5 days): 6.41 log10 colony forming units (CFU)/ml
- Salmonella Typhimurium on chicken filets ([5]; 0.2% (w/v) alone, 12° C., 6 days): 7.48 log10 colony forming units (CFU)/ml
- Salmonella Typhimurium on chicken filets ([5]; 0.2% (w/v) alone, 12° C., 7 days): 7.39 log10 colony forming units (CFU)/ml

Substance: ε-Polylysine
- Observed Relative Growth Rate [1, 8]: 0.9653
- Observed Relative Growth Rate [1, 9]: 0.9910
- Observed Relative Growth Rate [2, 8]: 0.8315
- Observed Relative Growth Rate [2, 9]: 0.5850
- Observed Relative Growth Rate [3, 8]: 0.9945
- Observed Relative Growth Rate [3, 9]: 0.9600
- Observed Relative Growth Rate [4, 8]: 0.7570
- Salmonella Typhimurium on chicken filets ([5]; 0.1% (w/v) alone, 12° C., 0 days): 3.04 log10 colony forming units (CFU)/ml
- Salmonella Typhimurium on chicken filets ([5]; 0.1% (w/v) alone, 12° C., 1 day): 2.04 log10 colony forming units (CFU)/ml
- Salmonella Typhimurium on chicken filets ([5]; 0.1% (w/v) alone, 12° C., 2 days): 2.15 log10 colony forming units (CFU)/ml
- Salmonella Typhimurium on chicken filets ([5]; 0.1% (w/v) alone, 12° C., 5 days): 4.04 log10 colony forming units (CFU)/ml
- Salmonella Typhimurium on chicken filets ([5]; 0.1% (w/v) alone, 12° C., 6 days): 4.26 log10 colony forming units (CFU)/ml
- Salmonella Typhimurium on chicken filets ([5]; 0.1% (w/v) alone, 12° C., 7 days): 5.35 log10 colony forming units (CFU)/ml
- killing or growth suppressing effect (in words) ([5]; individual components on chicken filets, 12° C.): reduced the cell numbers
- reduction in numbers ([5]; single addition, after one day of incubation): 2 log10
- concentrations effectively used against bacteria [6]: 1˜8 microgram per ml

Substance: glyceryl mono/di decanoate [C10-glycerol ester]
- Observed Relative Growth Rate [1, 10]: 0.4613
- Observed Relative Growth Rate [2, 10]: 0.8685
- Observed Relative Growth Rate [3, 10]: 0.8960
- Salmonella Typhimurium on chicken filets ([5]; 0.05% (w/v) alone, 12° C., 0 days): 3.72 log10 colony forming units (CFU)/ml
- Salmonella Typhimurium on chicken filets ([5]; 0.05% (w/v) alone, 12° C., 1 day): 3.98 log10 colony forming units (CFU)/ml
- Salmonella Typhimurium on chicken filets ([5]; 0.05% (w/v) alone, 12° C., 2 days): 4.32 log10 colony forming units (CFU)/ml
- Salmonella Typhimurium on chicken filets ([5]; 0.05% (w/v) alone, 12° C., 5 days): 6.0 log10 colony forming units (CFU)/ml
- Salmonella Typhimurium on chicken filets ([5]; 0.05% (w/v) alone, 12° C., 6 days): 7.62 log10 colony forming units (CFU)/ml
- Salmonella Typhimurium on chicken filets ([5]; 0.05% (w/v) alone, 12° C., 7 days): 7.85 log10 colony forming units (CFU)/ml
